Results reported in patent US8563472B2 (priority 2010, dated 2013).

Tests used:
[1] = tested on: Leptosphaeria nodorum (LEPTNO); assay: In vitro fungitoxicity assay against Leptosphaeria nodorum in copper-minus / copper-plus liquid medium; format: cell-based; details: test compound 0.05 μg/mL, 25° C., 72 h; for inhibition of growth at 0.05 µg/mL: Parastagonospora nodorum, copper-minus medium, growth by light scattering, read-out: LEPTNO % Inhn. Minus Copper Observed; for LEPTNO % Inhn. Plus Copper Observed: copper-plus medium (CuCl2.2H2O)
Experimental: In vitro fungitoxicity assays against Leptosphaeria nodorum (LEPTNO) were conducted using the liquid growth medium described by Coursen and Sisler (American Journal of Botany 1960, 47, 541-549) except that copper micronutrient, normally included as CuSO4, was omitted. The medium, termed “copper-minus”, was prepared by dissolving 10 g glucose, 1.5 g K2HPO4, 2 g KH2PO4 and 1 g (NH4)2SO4 in 1 liter of deionized water and treating the solution with 0.5 g Chelex 100 resin (Bio-Rad Analytical grade, 50-100 mesh, sodium form, cat#142-2822) by stirring at room temperature for 1 h. MgSO4.7H2O (0.5 g) was added, and stirring was continued for a further hour. Trace elements (minus CuSO4), and vitamins described by Coursen and Sisler were added from concentrated stock solutions and the entire medium was sterilized by filtration. Medium containing copper was prepared by adding CuCl2.2H2O to the copper-minus medium at 20 μM. […] Copper-minus medium (100 μL) was added to one of the wells and copper-plus medium to the second well. Control wells, included for each medium, received 1 μL DMSO and 100 μL of medium.
LEPTNO was grown on potato dextrose agar in 9 cm diameter petri dishes for 7 days (d). Sterile deionized water (20 mL) was added to a culture plate and spores suspended by scraping the surface gently with a sterile plastic loop. The resulting suspension was filtered through a double layer of sterile cheesecloth. […] The spores were resuspended in copper-minus medium, and the suspension adjusted to 2×10^5 spores per mL. Microtiter plates were inoculated with 100 μL of this spore suspension and the plates incubated at 25° C. for 72 h before assessing fungal growth by measuring light scattering in a NepheloStar plate reader. Growth inhibition was determined by comparing growth in the presence of test compound with growth in control wells lacking test compound.

Phytophthora infestans = format: in vivo; details: hydrazone 50 ppm with 50 μM CuCl2.2H2O, applied 24 h before inoculation, tomato plants, assessed 7 d after inoculation

| SMILES | inhibition of growth at 0.05 µg/mL [1] | LEPTNO % Inhn. Plus Copper Observed [1] | TLB % control (Phytophthora infestans) | melting point |
| --- | --- | --- | --- | --- |
| C/C(=N\NC(=O)c1ccc(Cl)s1)c1cc(Br)cc(Br)c1O [Compound 50] | 0% | 97.5% | 85% | 253 to 255 °C |
| O=C(N/N=C/c1cc(Cl)cc(Cl)c1O)c1sc(C(F)(F)F)nc1C(F)(F)F [Compound 12] | 49.8% | 94.7% | 57% | 189 to 190 °C |
| C/C(=N\NC(=O)c1ccsc1)c1ccccc1O [Compound 40] | 0% | 96.8% | 80% | 148 to 150 °C |
| C/C(=N\NC(=O)c1cc(C)nc2ccc(Br)cc12)c1ccccc1O [Compound 2] | 0% | 83.4% | 36% | 251 to 254 °C |
| C/C(=N\NC(=O)c1cn(-c2ccccc2)nc1O)c1cc(Cl)cc(Cl)c1O [Compound 42] | 3.5% | 91.2% | 2% | 269 to 271 °C |
| C/C(=N\NC(=O)c1cnn(-c2ccc(Cl)cc2)c1C(F)(F)F)c1cc(Cl)cc(Cl)c1O [Compound 41] | 0% | 71.3% | 36% | 209 to 211 °C |
| O=C(N/N=C/c1cc(Cl)cc(Cl)c1O)c1cnn(-c2ccc(Cl)cc2)c1C(F)(F)F [Compound 17] | 15.8% | 92.6% | 69% | 216 to 217 °C |
| Cc1nc(C)c(C(=O)N/N=C/c2cc(Br)cc(Br)c2O)s1 [Compound 30] | 1% | 71.2% | 49% | 225 to 226 °C |
| C/C(=N\NC(=O)c1sc(C)nc1C)c1ccccc1O [Compound 37] | 0% | 94.2% | 81% | 202 to 204 °C |
| O=C(N/N=C/c1ccccc1O)c1cc2ccccc2s1 [Compound 20] | 4.2% | 95.4% | 18% | 220 to 221 °C |
| Cn1cc(C(=O)N/N=C/c2cc(Cl)cc(Cl)c2O)c2ccccc21 [Compound 15] | 16.3% | 98.1% | 12% | 215 to 217 °C |
| Cc1cc(C(=O)N/N=C/c2cc(Cl)cc(Cl)c2O)c2cc(Br)ccc2n1 [Compound 1] | 2.5% | 73.8% | 7% | 265 to 267 °C |
| C/C(=N\NC(=O)c1csc(C)c1)c1cc(Cl)cc(Cl)c1O [Compound 45] | 3.7% | 98.3% | 83% | 218 to 220 °C |
| C/C(=N\NC(=O)c1sc(C)nc1C)c1cc(Cl)cc(Cl)c1O [Compound 43] | 0% | 94.3% | 66% | 208 to 209 °C |
| C/C(=N\NC(=O)c1ccc(Cl)s1)c1ccccc1O [Compound 38] | 0% | 98% | 56% | 204 to 205 °C |
